The results in this text go back to US20240277663A1, “PHARMACEUTICAL KITS AND USES THEREOF FOR TREATING COLORECTAL CANCER” (priority 2023, published 2024).

Where two headings read alike, the source gives them in different places. Marks after values point to notes of the source that are not given here.

The test system of assay [1] is CT26 allograft tumor (MSS subtype colorectal carcinoma). The experiment in a line: CT26 subcutaneous tumor model, HDAC inhibitors with or without RMP1-14. The conditions noted are these: for response in the mice on the growth of tumor (individual tumor volumes): compared to vehicle group or to other combinations, ABT-301 100 mg/kg, vorinostat 100 mg/kg, citarinostat 50 mg/kg, RMP1-14 200 μg.
Description: MC-38 cells (purchased from Kerafast, Inc.), derived from C57BL/6 murine colon adenocarcinoma cells typically classified as microsatellite instable, were maintained in DMEM with 10% fetal bovine serum, 100 U/mL penicillin, 100 μg/mL streptomycin, 10 mM HEPES, and 1× nonessential amino acid. All the cells were maintained in a humidified atmosphere having 5% CO2 at 37° C.
(§1) Female BALB/c mice (BALB/cByJNarl) aged 5-7 weeks (for CT26 subcutaneous tumor model), and female C57BL/6 mice (C57BL/6JNarl) aged 5-7 weeks (for MC-38 subcutaneous tumor model), were housed in standard cages within the animal facility at the Industrial Technology Research Institute (ITRI). A one-week acclimatization period preceded the commencement of the study, with the health of the mice monitored daily. Animals were kept in rooms at 22-26° C. with 40-70% humidity, positive pressure, 60% air recirculation, ventilation rate 15-20 changes per hour, and a controlled light-dark cycle (12-12 hours).
(§2) CT26 cells (2×10^5) were suspended in 100 μl of PBS and subcutaneously inoculated into the right flank of female BALB/c mice. Tumors were measured with calipers, and tumor size was calculated as follows: tumor volume (V)=(L×S^2)/2 (L, longest diameter, mm; S, shortest diameter, mm). Tumor size and body weight of mice were monitored and recorded twice to thrice per week. The antitumor activities of treatments were expressed as percentages of tumor growth inhibition (% TGI), as calculated using the following formula: [1−(final tumor volume−initial tumor volume for treated group)/(final tumor volume−initial tumor volume for vehicle group)]×100. Body weight of each mouse was also compared to that on the first day of treatment (Day 0) and expressed as a percentage of Day 0 value.
When mean tumor volume reached about 80-100 mm^3, treatments were initiated and the day of treatment initiation was designated as Day 0. […] Treatments were administered for indicated period (31 days) or until humane endpoints. Eight or nine mice were used in each group. […] RMP1-14 was prepared with PBS.

The test system is the same in assay [2]. The experiment in a line: CT26 subcutaneous tumor model, multiple doses of ABT-301 with or without avelumab. The assay is classed as in vivo, mouse. How it is done:
Treatments were administered for indicated period (24 days) or until humane endpoints. Ten mice were used in each group. […] Avelumab was prepared with PBS.

Assay [3] shares this test system.
Description: As described herein, tumor responses were evaluated using Response Evaluation Criteria in Solid Tumors (RECIST) criteria. Complete response (CR) was defined as complete disappearance of measurable or evaluable tumor lesions; partial response (PR) was defined as reduction of the size of measurable tumor lesions by at least 30% (≥30%) compared to the original tumor size; stable disease (SD) was defined as reduction of the size of measurable tumor lesions by less than 30% (<30%) or enlargement of the size of measurable tumor lesions by less than 20% (<20%) compared to the original tumor size; and progressive disease (PD) was defined as growth of the tumor by more than 30% (>30%) in the tumor volume compared to the original tumor size or development of new lesions.
All the cells were maintained in a humidified atmosphere having 5% CO2 at 37° C.
as §1, §2
The administration of treatments commenced five days following the inoculation of CT26 cells, with the day of treatment initiation designated as Day 0. When mean tumor volume reached 50-100 mm^3, the mice were assigned into four groups through S-type grouping according to tumor size. […] Eight mice were used in each group. Treatments were administered for 43 days. […] Avelumab was prepared with PBS.
Assay [4] has as its system MC-38 allograft tumor (MSI-H subtype colorectal carcinoma).
Description: As described herein, tumor responses were evaluated using Response Evaluation Criteria in Solid Tumors (RECIST) criteria. Complete response (CR) was defined as complete disappearance of measurable or evaluable tumor lesions; partial response (PR) was defined as reduction of the size of measurable tumor lesions by at least 30% (≥30%) compared to the original tumor size; stable disease (SD) was defined as reduction of the size of measurable tumor lesions by less than 30% (<30%) or enlargement of the size of measurable tumor lesions by less than 20% (<20%) compared to the original tumor size; and progressive disease (PD) was defined as growth of the tumor by more than 30% (>30%) in the tumor volume compared to the original tumor size or development of new lesions. […]
Female BALB/c mice (BALB/cByJNarl) aged 5-7 weeks (for CT26 subcutaneous tumor model), and female C57BL/6 mice (C57BL/6JNarl) aged 5-7 weeks (for MC-38 subcutaneous tumor model), were housed in standard cages within the animal facility at the Industrial Technology Research Institute (ITRI). A one-week acclimatization period preceded the commencement of the study, with the health of the mice monitored daily. […]
MC-38 cells (2×10^5) were suspended in 100 μl of PBS and subcutaneously inoculated into the right flank of female C57BL/6 mice. Tumors were measured with calipers, and tumor size was calculated as follows: tumor volume (V)=(LxS^2)/2 (L, longest diameter, mm; S, shortest diameter, mm). Tumor size and body weight of mice were monitored and recorded twice to thrice per week. The antitumor activities of treatments were expressed as percentages of tumor growth inhibition (% TGI), as calculated using the following formula: [1−(final tumor volume−initial tumor volume for treated group)/(final tumor volume−initial tumor volume for vehicle group)]×100. Body weight of each mouse was also compared to that on the first day of treatment (Day 0) and expressed as a percentage of Day 0 value. […]
A further assay has as its target T1, HDAC7 (Homo sapiens, UniProt Q8WUI4).
T1 sequence (Q8WUI4 1-952): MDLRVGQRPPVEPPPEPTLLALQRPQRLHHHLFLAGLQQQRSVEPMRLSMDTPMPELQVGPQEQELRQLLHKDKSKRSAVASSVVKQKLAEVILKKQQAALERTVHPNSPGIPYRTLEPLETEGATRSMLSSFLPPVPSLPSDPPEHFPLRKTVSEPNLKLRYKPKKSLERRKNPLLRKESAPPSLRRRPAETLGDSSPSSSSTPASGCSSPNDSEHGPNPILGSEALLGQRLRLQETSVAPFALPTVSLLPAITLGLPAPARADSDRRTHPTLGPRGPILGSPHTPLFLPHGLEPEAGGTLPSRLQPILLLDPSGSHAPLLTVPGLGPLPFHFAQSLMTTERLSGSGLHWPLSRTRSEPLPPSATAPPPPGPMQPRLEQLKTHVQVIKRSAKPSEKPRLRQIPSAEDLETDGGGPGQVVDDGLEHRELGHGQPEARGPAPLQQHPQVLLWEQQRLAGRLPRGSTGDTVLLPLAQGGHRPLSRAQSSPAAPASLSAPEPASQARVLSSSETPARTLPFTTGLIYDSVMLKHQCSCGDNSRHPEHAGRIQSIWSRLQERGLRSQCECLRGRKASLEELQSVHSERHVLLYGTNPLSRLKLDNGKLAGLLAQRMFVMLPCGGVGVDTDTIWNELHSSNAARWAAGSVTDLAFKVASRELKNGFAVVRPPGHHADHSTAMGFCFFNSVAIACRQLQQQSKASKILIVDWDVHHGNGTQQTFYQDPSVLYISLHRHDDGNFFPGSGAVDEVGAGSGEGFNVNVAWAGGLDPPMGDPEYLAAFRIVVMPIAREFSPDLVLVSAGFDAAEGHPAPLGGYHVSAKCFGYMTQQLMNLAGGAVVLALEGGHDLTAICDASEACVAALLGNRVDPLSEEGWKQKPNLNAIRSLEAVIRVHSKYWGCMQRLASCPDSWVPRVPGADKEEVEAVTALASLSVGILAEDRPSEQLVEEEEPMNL
Description: HDAC enzymatic activity assay (fluorogenic, Reaction Biology).

A further assay concerns the target HDAC9 (Homo sapiens, UniProt Q9UKV0). The assay is described as above.
A further assay concerns the target T2, HDAC10 (Homo sapiens, UniProt Q969S8).
T2 sequence (Q969S8 1-669): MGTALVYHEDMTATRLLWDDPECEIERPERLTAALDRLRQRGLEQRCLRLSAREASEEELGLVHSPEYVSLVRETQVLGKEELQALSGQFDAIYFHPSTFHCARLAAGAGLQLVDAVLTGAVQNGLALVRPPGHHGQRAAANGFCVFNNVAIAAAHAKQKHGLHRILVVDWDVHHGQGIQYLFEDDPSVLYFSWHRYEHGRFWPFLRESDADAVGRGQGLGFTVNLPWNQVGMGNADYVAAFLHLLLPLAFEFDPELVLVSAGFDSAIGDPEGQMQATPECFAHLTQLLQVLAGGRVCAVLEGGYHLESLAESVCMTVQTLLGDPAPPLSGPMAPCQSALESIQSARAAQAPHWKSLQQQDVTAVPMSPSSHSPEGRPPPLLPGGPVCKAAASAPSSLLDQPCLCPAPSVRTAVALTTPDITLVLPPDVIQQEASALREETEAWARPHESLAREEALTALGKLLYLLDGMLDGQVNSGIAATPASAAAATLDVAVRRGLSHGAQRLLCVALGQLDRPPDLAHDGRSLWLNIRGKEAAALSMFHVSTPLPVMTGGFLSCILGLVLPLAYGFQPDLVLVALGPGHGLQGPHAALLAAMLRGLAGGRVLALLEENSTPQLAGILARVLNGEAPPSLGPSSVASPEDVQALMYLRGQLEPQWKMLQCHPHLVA
The description is as above.

The next assay concerns the target T3, HDAC11 (Homo sapiens, UniProt Q96DB2).
T3 sequence (Q96DB2 1-347): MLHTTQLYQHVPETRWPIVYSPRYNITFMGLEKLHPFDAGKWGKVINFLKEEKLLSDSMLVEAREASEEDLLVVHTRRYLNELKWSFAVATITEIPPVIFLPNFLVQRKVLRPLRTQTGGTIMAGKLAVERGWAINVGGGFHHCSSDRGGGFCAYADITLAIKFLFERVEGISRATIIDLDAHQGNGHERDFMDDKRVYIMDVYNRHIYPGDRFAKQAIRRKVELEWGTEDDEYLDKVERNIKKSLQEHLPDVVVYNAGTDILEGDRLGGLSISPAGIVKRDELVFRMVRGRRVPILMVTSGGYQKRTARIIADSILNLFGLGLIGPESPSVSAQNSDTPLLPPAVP
The assay is described as above.

Another assay relates to colorectal cancer tumor. Description: Another batch: HDAC inhibitors (PCI-34051, elevenostat, ABT-301) with or without RMP1-14 in tumor-bearing mice. The assay is classed as in vivo, mouse. The following applies: another batch of experiments, data not shown; compared to vehicle group or to other combinations.
Setting [5] is: Day 28 after treatments, ABT-301 100 mg/kg PO, avelumab 100 μg IP, means ± SEM.

Sequence of HDAC9 (Q9UKV0 whole entry): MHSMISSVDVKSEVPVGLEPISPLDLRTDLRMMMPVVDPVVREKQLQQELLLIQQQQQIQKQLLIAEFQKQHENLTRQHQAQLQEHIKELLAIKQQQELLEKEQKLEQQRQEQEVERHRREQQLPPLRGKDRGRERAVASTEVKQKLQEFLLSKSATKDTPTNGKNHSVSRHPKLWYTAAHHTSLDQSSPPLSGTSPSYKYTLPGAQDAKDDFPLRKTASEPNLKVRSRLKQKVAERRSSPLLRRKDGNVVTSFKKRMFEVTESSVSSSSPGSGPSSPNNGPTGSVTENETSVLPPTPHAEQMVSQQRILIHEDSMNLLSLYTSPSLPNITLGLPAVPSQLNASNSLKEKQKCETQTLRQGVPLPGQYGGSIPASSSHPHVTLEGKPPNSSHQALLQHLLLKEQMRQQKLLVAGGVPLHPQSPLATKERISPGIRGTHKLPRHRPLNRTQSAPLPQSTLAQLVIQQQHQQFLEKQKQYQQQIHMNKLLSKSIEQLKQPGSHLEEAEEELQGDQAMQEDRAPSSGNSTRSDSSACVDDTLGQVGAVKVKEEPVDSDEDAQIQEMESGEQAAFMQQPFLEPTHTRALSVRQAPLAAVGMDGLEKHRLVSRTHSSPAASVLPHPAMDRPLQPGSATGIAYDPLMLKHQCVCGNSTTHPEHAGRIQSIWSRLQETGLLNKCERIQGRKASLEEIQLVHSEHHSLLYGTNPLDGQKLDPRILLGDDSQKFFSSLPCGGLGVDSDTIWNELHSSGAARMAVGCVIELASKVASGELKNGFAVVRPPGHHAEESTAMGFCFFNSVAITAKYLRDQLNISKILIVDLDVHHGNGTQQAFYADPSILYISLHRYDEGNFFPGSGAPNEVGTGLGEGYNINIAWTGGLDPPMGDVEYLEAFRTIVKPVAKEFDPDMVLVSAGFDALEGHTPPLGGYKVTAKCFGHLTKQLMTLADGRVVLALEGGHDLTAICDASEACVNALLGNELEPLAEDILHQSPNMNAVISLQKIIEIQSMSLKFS

Turning to `O=C(CCCCCCC(=O)Nc1ccccc1)NO` [Vorinostat], the “response in the mice on the growth of tumor (individual tumor volumes)” value in [1] was “did not elicit a visible response”.
Take “Avelumab: an anti-PD-L1 antibody [reference compound]”: the Tumor size in assay [2] (Day 24 after treatments, avelumab 200 μg alone, means ± SEM) is 31.79 ± 26.66** mm^3; in assay [3] (setting [5]), 559.63 ± 156.94 mm^3; in assay [4] (Day 25 after treatments, ABT-301 100 mg/kg PO, avelumab 200 μg IP, RMP1-14 200 μg IP, means ± SEM), 529.91 ± 329.24 mm^3. Besides, the “number of mice exhibiting complete response (CR)” value in assay [2] (avelumab 200 μg IP BIW alone, out of 10 mice) is recorded as 7. The “complete response (CR) rate” value in assay [3] (CT26-bearing BALB/c mice, n=8/group, ABT-301 100 mg/kg PO QD, avelumab 100 μg IP BIW) is 1/8; in [4] (MC-38-bearing C57BL/6 mice, n=8/group, ABT-301 100 mg/kg PO QD, avelumab 200 μg IP BIW, RMP1-14 200 μg IP BIW) it was 4/8. In addition, the Median survival in assay [3] (CT26 allograft tumor mice, over the entire study, ABT-301 100 mg/kg PO QD, avelumab 100 μg IP BIW) was found to be 28 days; in [4] (MC-38 allograft tumor mice, over the entire study, ABT-301 100 mg/kg PO QD, avelumab or RMP1-14 200 μg IP BIW), 68 days. In addition, in assay [3] (setting [5]), the “TGI (tumor growth inhibition)” value is 58.51 ± 14.14%.
One may read the IC50 as the concentration that gives 50% inhibition. On to `Nc1cc(F)ccc1NC(=O)c1ccc(CNC(=O)/C=C/c2cccnc2)cc1` [Tucidinostat, reference compound], for which the IC50 against HDAC7, against HDAC9, at HDAC10 and on HDAC11 was > 3 µM throughout.
With `COc1ccccc1NC(=O)NCc1ccc(C(=O)NO)cc1` [elevenostat], the “response in the mice on the growth of tumor” value in the assay on colorectal cancer tumor was “did not elicit a visible response”.
For `COc1ccc(Cn2ccc3ccc(C(=O)NO)cc32)cc1` [PCI-34051], in the assay on colorectal cancer tumor, the “response in the mice on the growth of tumor” value is given as “did not elicit a visible response”.
For the compound `O=C(CCCCCCNC(=O)c1cnc(N(c2ccccc2)c2ccccc2Cl)nc1)NO` [Citarinostat], the “TGI (tumor growth inhibition)” value in [1] (Day 22 after treatments, ABT-301 100 mg/kg PO, vorinostat 100 mg/kg PO, citarinostat 50 mg/kg IP, RMP1-14 200 μg IP) came out at 38%. In addition, the “response in the mice on the growth of tumor (individual tumor volumes)” value in assay [1] is listed as “did not elicit a visible response”.
